Laboratory results as given in patent publication US20060069132A1, “Azolecarboxamide herbicides” (priority 2004, published 2006).

Legend:
Assay in all cases: Test J Compounds 2 and 6 alone and in combination with other herbicides, foliage spray
Conditions in all cases: applied alone
[1] = system: blackgrass (ALOMY); format: in vivo, Alopecurus myosuroides; set-up: key: 0 = no effect, 100 = complete control
Excerpt: (§1) Colby's Equation was used to calculate the expected additive herbicidal effect of the mixtures of Compound 6 with Harmony® Extra (i.e. a 2:1 mixture by weight of thifensulfuron-methyl and tribenuron-methyl). Colby's Equation (Colby, S. R. “Calculating Synergistic and Antagonistic Responses of Herbicide Combinations,” Weeds, 15(1), pp 20-22 (1967)) calculates the expected additive effect of herbicidal mixtures, and for two active ingredients is of the form: Pa+b=Pa+Pb−(PaPb/100) wherein • Pa+b is the percentage effect of the mixture expected from additive contribution of the individual components, • Pa is the observed percentage effect of the first active ingredient at the same use rate as in the mixture, and • Pb is the observed percentage effect of the second active ingredient at the same use rate as in the mixture.
(§2) Seeds of test plants consisting of barnyardgrass (ECHCG; Echinochloa crus-galli (L.) Beauv.), blackgrass (ALOMY; Alopecurus myosuroides Huds.), Surinam grass (BRADC; Urochloa decumbens (Staph) R. D. Webster, previously named Brachiaria decumbens Stapf), cocklebur (XANST, Xanthium strumarium L.), corn (ZEAMD, Zea mays L. cv. ‘Pioneer 33G26’), large crabgrass (DIGSA, Digitaria sanguinalis (L.) Scop.), giant foxtail (SETFA, Setaria faberi Herrm.), lambsquarters (CHEAL, Chenopodium album L.), morningglory (IPOCO, Ipomoea coccinea L.), pigweed (AMARE, Amaranthus retroflexus L.), velvetleaf (ABUTH, Abutilon theophrasti Medik.) wheat (TRZAS, Triticum aestivum L. cv. ‘Recital’) and wild oat (AVEFA, Avena fatua L.) were planted in Redi-Earth® planting medium (Scotts Company, 14111 Scottslawn Road, Marysville, Ohio 43041) comprising spaghnum peat moss and vermiculite. Seeds of small-seeded species were planted about 1 cm deep; larger seeds were planted about 2.5 cm deep. Plants were grown in a greenhouse using supplemental lighting to maintain a photoperiod of about 14 hours; daytime and nighttime temperatures were about 24-30° C. and 22-25° C., respectively. Balanced fertilizer was applied through the watering system. The plants were grown for 7 to 11 days so that at time of treatment the plants ranged in height from 2 to 18 cm (1- to 4-leaf stage). Treatments consisted of Compounds 2 and 6 (technical material), atrazine (90DF), terbacil (Sinbar® 80DF), hexazinone (Velpar® 75WG), diuron (Karmex® 80WP) and paraquat (Gramoxone® Extra, 37%) alone and in combination, suspended or dissolved in an aqueous solvent comprising a nonionic surfactant and applied as a foliage spray using a volume of 541 L/ha. Each treatment was triply replicated. […] Treated plants and controls were maintained in the greenhouse and watered as needed with care to not wet the foliage for the first 24 hours after treatment. The effects on the plants 15 days after treatment were visually compared to untreated controls. Plant response ratings, listed in Table J as the means of the thee replicates, are based on a scale of 0 to 100 where 0 is no effect and 100 is complete control. Also listed in Table J are the expected effects for the mixtures calculated using Colby's Equation.

[2] = system: giant foxtail (SETFA); format: in vivo, Setaria faberi; set-up: key: 0 = no effect, 100 = complete control
Excerpt: as §2

[3] = system: large crabgrass (DIGSA); format: in vivo, Digitaria sanguinalis; set-up: key to DIGSA Obsd.: 0 = no effect, 100 = complete control
Excerpt: as §1, §2

[4] = system: cocklebur (XANST); format: in vivo, Xanthium strumarium; set-up: key: 0 = no effect, 100 = complete control
Excerpt: as §2

[5] = system: corn (ZEAMD); format: in vivo, Zea mays; set-up: key: percentage herbicidal effect (observed)
Excerpt: as §1, §2

[6] = system: pigweed (AMARE); format: in vivo, Amaranthus retroflexus; set-up: key: 0 = no effect, 100 = complete control
Excerpt: as §1, §2

[7] = system: morningglory (IPOCO); format: in vivo, Ipomoea coccinea; set-up: key: 0 = no effect, 100 = complete control
Excerpt: as §2

[8] = system: lambsquarters (CHEAL); format: in vivo, Chenopodium album; set-up: key: % herbicidal effect (observed)
Excerpt: as §1, §2

[9] = system: wheat (TRZAS); format: in vivo, Triticum aestivum; set-up: key: 0 = no effect, 100 = complete control
Excerpt: as §1, §2

[10] = system: wild oat (AVEFA); format: in vivo, Avena fatua; set-up: key: 0 = no effect, 100 = complete control
Excerpt: as §1, §2

[11] = system: velvetleaf (ABUTH); format: in vivo, Abutilon theophrasti; set-up: key: 0 = no effect, 100 = complete control
Excerpt: as §1, §2

[12] = system: barnyardgrass (ECHCG); format: in vivo, Echinochloa crus-galli; set-up: key: percentage herbicidal effect (observed)
Excerpt: as §1, §2

[13] = system: Surinam grass (BRADC); format: in vivo, Urochloa decumbens; set-up: key: 0 = no effect, 100 = complete control
Excerpt: as §1, §2

`CCNc1nc(Cl)nc(NC(C)C)n1` [atrazine] was tested, and the “ALOMY Obsd.” value ([1]; 125 g a.i./ha) was 3, the “ALOMY Obsd.” value ([1]; 250 g a.i./ha) was 28 and the “SETFA Obsd.” value ([2]; 125 g a.i./ha) was 0. The “SETFA Obsd.” value ([2]; 250 g a.i./ha) was 18, the “DIGSA Obsd.” value ([3]; 125 g a.i./ha) was 5 and the “DIGSA Obsd.” value ([3]; 250 g a.i./ha) was 5. The “XANST Obsd.” value ([4]; 125 g a.i./ha) was 45, the “XANST Obsd.” value ([4]; 250 g a.i./ha) was 72 and the “ZEAMD Obsd.” value ([5]; 125 g a.i./ha) was 3. The “ZEAMD Obsd.” value ([5]; 250 g a.i./ha) was 12, the “AMARE Obsd.” value ([6]; 125 g a.i./ha) was 38 and the “AMARE Obsd.” value ([6]; 250 g a.i./ha) was 75. For the same molecule, the “IPOCO Obsd.” value ([7]; 125 g a.i./ha) was 52, the “IPOCO Obsd.” value ([7]; 250 g a.i./ha) was 75 and the “CHEAL Obsd.” value ([8]; 125 g a.i./ha) was 67. The “CHEAL Obsd.” value ([8]; 250 g a.i./ha) was 95, the “TRZAS Obsd.” value ([9]; 125 g a.i./ha) was 3 and the “TRZAS Obsd.” value ([9]; 250 g a.i./ha) was 8. The “AVEFA Obsd.” value ([10]; 125 g a.i./ha) was 13, the “AVEFA Obsd.” value ([10]; 250 g a.i./ha) was 28 and the “ABUTH Obsd.” value ([11]; 125 g a.i./ha) was 15. The “ABUTH Obsd.” value ([11]; 250 g a.i./ha) was 25, the “ECHCG Obsd.” value ([12]; 125 g a.i./ha) was 20 and the “ECHCG Obsd.” value ([12]; 250 g a.i./ha) was 23. For the same molecule, the “BRADC Obsd.” value ([13]; 125 g a.i./ha) was 15 and the “BRADC Obsd.” value ([13]; 250 g a.i./ha) was 5.

`CN(C)C(=O)Nc1ccc(Cl)c(Cl)c1` [diuron] was tested, and the “ALOMY Obsd.” value ([1]; 250 g a.i./ha) was 25, the “ALOMY Obsd.” value ([1]; 500 g a.i./ha) was 43 and the “SETFA Obsd.” value ([2]; 250 g a.i./ha) was 35. The “SETFA Obsd.” value ([2]; 500 g a.i./ha) was 67, the “DIGSA Obsd.” value ([3]; 250 g a.i./ha) was 68 and the “DIGSA Obsd.” value ([3]; 500 g a.i./ha) was 63. For the same molecule, the “XANST Obsd.” value ([4]; 250 g a.i./ha) was 93, the “XANST Obsd.” value ([4]; 500 g a.i./ha) was 100 and the “ZEAMD Obsd.” value ([5]; 250 g a.i./ha) was 20. For the same molecule, the “ZEAMD Obsd.” value ([5]; 500 g a.i./ha) was 28, the “AMARE Obsd.” value ([6]; 250 g a.i./ha) was 95 and the “AMARE Obsd.” value ([6]; 500 g a.i./ha) was 100. For the same molecule, the “IPOCO Obsd.” value ([7]; 250 g a.i./ha) was 92, the “IPOCO Obsd.” value ([7]; 500 g a.i./ha) was 100 and the “CHEAL Obsd.” value ([8]; 250 g a.i./ha) was 98. The “CHEAL Obsd.” value ([8]; 500 g a.i./ha) was 100, the “TRZAS Obsd.” value ([9]; 250 g a.i./ha) was 30 and the “TRZAS Obsd.” value ([9]; 500 g a.i./ha) was 40. The “AVEFA Obsd.” value ([10]; 250 g a.i./ha) was 15, the “AVEFA Obsd.” value ([10]; 500 g a.i./ha) was 47 and the “ABUTH Obsd.” value ([11]; 250 g a.i./ha) was 77. For the same molecule, the “ABUTH Obsd.” value ([11]; 500 g a.i./ha) was 100, the “ECHCG Obsd.” value ([12]; 250 g a.i./ha) was 62 and the “ECHCG Obsd.” value ([12]; 500 g a.i./ha) was 98. For the same molecule, the “BRADC Obsd.” value ([13]; 250 g a.i./ha) was 68 and the “BRADC Obsd.” value ([13]; 500 g a.i./ha) was 85.
